From ChEMBL document CHEMBL5154702, “Synthesis and biological evaluation of aminobenzamides containing purine moiety as class I histone deacetylases inhibitors” (Bioorg Med Chem, 2022)
Activity calls are given as the source filed them. The rule behind the calls is not given here.

Tests used:
Histone deacetylase 8 = molecular target: T1, Histone deacetylase 8 (Homo sapiens, UniProt Q9BY41); experiment: Inhibition of human full-length C-terminal His-tagged HDAC8 expressed in baculovirus infected Sf9 insect cell using fluorogenic HDAC class 2a substrate measured after 30 mins by fluorimetry
T1 sequence (Q9BY41 whole entry): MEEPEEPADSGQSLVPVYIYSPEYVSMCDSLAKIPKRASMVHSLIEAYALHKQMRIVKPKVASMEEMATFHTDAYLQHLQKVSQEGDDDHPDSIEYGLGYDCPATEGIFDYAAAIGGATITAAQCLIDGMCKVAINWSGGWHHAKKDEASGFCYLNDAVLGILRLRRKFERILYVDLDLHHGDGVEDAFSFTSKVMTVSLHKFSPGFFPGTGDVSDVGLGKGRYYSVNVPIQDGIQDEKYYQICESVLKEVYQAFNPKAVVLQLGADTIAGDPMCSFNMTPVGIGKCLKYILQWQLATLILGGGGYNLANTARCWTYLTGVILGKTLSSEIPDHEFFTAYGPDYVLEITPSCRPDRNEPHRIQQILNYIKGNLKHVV

[1] = molecular target: Histone deacetylase 3/Nuclear receptor corepressor 2 (HDAC3/NCoR2) (Homo sapiens, UniProt O15379); experiment: biochemical; set-up: species or system Sf9
Histone deacetylase = format: cell-based, Homo sapiens; settings: hela
[2] = molecular target: Histone deacetylase (Homo sapiens) (UniProt Q13547+O15379+Q9UBN7+Q92769+Q9UQL6+Q8WUI4+Q9BY41+Q96DB2+P56524+Q9UKV0+Q969S8); experiment: Potency index, ratio of MS-275 IC50 to test compound IC50 for inhibition of HDAC in human HeLa cell nuclear extracts using color de Lys as substrate
Histone deacetylase 1 = Histone deacetylase 1 (Homo sapiens, UniProt Q13547); experiment: Potency index, ratio of MS-275 IC50 to test compound IC50 for inhibition of recombinant human full-length C-terminal Flag-His6-tagged HDAC1 (1 to 482 residues) expressed in Sf9 insect cells
HCT-116 [3] = experiment: Antiproliferative activity against human HCT-116 cells measured after 48 hrs by MTT assay; format: functional, cell-based; settings: HCT-116, 48 h
MDA-MB-231 [4] = experiment: Antiproliferative activity against human MDA-MB-231 cells measured after 48 hrs by MTT assay; format: functional, cell-based; settings: MDA-MB-231, 48 h
HepG2 = experiment: cells; format: functional, cell-based; settings: Homo sapiens, HepG2, 48 h
SGC-7901 = experiment: Antiproliferative activity against human SGC-7901 cells measured after 48 hrs by MTT assay; format: functional, cell-based; settings: SGC-7901, 48 h
K562 = experiment: cells; format: functional, cell-based; settings: Homo sapiens, K562, 48 h
MDA-MB-231 [5] = experiment: Potency index, ratio of SAHA IC50 to test compound IC50 for antiproliferative activity against human MDA-MB-231 cells; format: functional
HCT-116 [6] = experiment: Induction of cell morphological changes in human HCT-116 cells assessed as cell fragmentation at 0.5 to 5 uM measured after 24 hrs by phase contrast microscopy; format: functional, cell-based; settings: dose 0.5-5 µM
HCT-116 [7] = experiment: Induction of apoptosis in human HCT-116 cells assessed as early apoptotic cells at 0.5 uM measured after 24 hrs by Annexin V-FITC/propidium iodide staining based flow cytometry (reference value: 1.87%); format: functional
HCT-116 [8] = experiment: Induction of apoptosis in human HCT-116 cells assessed as late apoptotic cells at 0.5 uM measured after 24 hrs by Annexin V-FITC/propidium iodide staining based flow cytometry (reference value: 3.43%); format: functional
HCT-116 [9] = experiment: Induction of apoptosis in human HCT-116 cells assessed as late apoptotic cells at 1 uM measured after 24 hrs by Annexin V-FITC/propidium iodide staining based flow cytometry (reference value: 3.43%); format: functional
HCT-116 [10] = experiment: Induction of apoptosis in human HCT-116 cells assessed as viable cells at 5 uM measured after 24 hrs by Annexin V-FITC/propidium iodide staining based flow cytometry (reference value: 87.3%); format: functional; settings: read-out: Activity
HCT-116 [11] = experiment: Induction of apoptosis in human HCT-116 cells assessed as late apoptotic cells at 5 uM measured after 24 hrs by Annexin V-FITC/propidium iodide staining based flow cytometry (reference value: 3.43%); format: functional
HCT-116 [12] = experiment: Induction of apoptosis in human HCT-116 cells assessed as necrotic cells at 5 uM measured after 24 hrs by Annexin V-FITC/propidium iodide staining based flow cytometry (reference value: 7.39%); format: functional
HCT-116 [13] = experiment: Cell cycle arrest in human HCT-116 cells assessed as accumulation of cells at G0/G1 phase at 0.1 uM measured after 24 hrs by propidium iodide staining based flow cytometry (reference value: 58.05%); format: functional
HCT-116 [14] = experiment: Cell cycle arrest in human HCT-116 cells assessed as accumulation of cells at G0/G1 phase at 1 uM measured after 24 hrs by propidium iodide staining based flow cytometry (reference value: 58.05%); format: functional
HCT-116 [15] = experiment: Cell cycle arrest in human HCT-116 cells assessed as accumulation of cells at G2/M phase at 10 uM measured after 24 hrs by propidium iodide staining based flow cytometry (reference value: 22.74%); format: functional
HCT-116 [16] = experiment: Cell cycle arrest in human HCT-116 cells assessed as accumulation of cells at G2/M phase at 10 uM measured after 6 hrs by propidium iodide staining based flow cytometry (reference value: 22.74%); format: functional
HCT-116 [17] = experiment: Cell cycle arrest in human HCT-116 cells assessed as down regulation of CDK2 expression measured after 24 hrs by Western blot analysis; format: functional, cell-based; settings: dose 0.1-10 µM, DDE = dose-dependent effect
HCT-116 [18] = experiment: Cell cycle arrest in human HCT-116 cells assessed as down regulation of Bcl-2 expression measured after 24 hrs by Western blot analysis; format: functional, cell-based; settings: dose 0.1-10 µM, DDE = dose-dependent effect
HCT-116 [19] = experiment: Cell cycle arrest in human HCT-116 cells assessed as up regulation of Bax expression measured after 24 hrs by Western blot analysis; format: functional, cell-based; settings: dose 0.1-10 µM, DDE = dose-dependent effect
HCT-116 [20] = experiment: Cell cycle arrest in human HCT-116 cells assessed as down regulation of Bcl-2 expression at 5 uM by Western blot analysis; format: functional, cell-based; settings: time 6-48 hrs, TDE = time-dependent effect
HCT-116 [21] = experiment: Cell cycle arrest in human HCT-116 cells assessed as up regulation of Bax expression at 5 uM by Western blot analysis; format: functional, cell-based; settings: time 6-48 hrs, TDE = time-dependent effect
[22] = Intrinsic clearance in dog liver microsomes assessed per mg protein at 13.8 uM by HPLC analysis; format: ADME, Canis lupus familiaris, Microsome

Histone deacetylase 1, sequence (Q13547 whole entry, the tested form may be a part): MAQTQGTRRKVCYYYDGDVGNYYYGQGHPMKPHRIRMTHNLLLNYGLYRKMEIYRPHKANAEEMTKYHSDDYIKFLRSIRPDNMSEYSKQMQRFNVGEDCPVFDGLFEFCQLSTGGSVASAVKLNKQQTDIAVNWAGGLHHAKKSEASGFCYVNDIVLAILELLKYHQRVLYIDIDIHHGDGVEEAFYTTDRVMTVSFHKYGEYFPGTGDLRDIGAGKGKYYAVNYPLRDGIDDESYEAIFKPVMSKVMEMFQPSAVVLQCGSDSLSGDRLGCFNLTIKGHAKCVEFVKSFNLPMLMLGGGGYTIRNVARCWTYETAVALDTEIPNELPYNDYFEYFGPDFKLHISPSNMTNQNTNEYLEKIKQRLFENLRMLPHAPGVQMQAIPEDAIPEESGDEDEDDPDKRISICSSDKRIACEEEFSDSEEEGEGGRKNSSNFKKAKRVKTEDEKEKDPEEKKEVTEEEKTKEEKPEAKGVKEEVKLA
Histone deacetylase 3/Nuclear receptor corepressor 2 (HDAC3/NCoR2), sequence (O15379 whole entry): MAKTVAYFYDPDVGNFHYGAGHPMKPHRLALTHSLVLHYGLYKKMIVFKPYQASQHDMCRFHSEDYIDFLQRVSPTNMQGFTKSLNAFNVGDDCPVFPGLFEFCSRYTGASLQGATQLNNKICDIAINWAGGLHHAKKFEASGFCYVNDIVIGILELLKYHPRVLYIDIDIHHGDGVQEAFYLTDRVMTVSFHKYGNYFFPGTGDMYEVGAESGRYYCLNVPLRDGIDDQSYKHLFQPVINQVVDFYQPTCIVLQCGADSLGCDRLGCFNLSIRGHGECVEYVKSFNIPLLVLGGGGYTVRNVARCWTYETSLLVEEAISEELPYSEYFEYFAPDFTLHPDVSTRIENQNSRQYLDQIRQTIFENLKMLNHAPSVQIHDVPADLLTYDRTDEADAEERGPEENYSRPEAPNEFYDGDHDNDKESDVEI
Histone deacetylase 3/Nuclear receptor corepressor 2 (HDAC3/NCoR2), sequence (Q9Y618 whole entry, further chain): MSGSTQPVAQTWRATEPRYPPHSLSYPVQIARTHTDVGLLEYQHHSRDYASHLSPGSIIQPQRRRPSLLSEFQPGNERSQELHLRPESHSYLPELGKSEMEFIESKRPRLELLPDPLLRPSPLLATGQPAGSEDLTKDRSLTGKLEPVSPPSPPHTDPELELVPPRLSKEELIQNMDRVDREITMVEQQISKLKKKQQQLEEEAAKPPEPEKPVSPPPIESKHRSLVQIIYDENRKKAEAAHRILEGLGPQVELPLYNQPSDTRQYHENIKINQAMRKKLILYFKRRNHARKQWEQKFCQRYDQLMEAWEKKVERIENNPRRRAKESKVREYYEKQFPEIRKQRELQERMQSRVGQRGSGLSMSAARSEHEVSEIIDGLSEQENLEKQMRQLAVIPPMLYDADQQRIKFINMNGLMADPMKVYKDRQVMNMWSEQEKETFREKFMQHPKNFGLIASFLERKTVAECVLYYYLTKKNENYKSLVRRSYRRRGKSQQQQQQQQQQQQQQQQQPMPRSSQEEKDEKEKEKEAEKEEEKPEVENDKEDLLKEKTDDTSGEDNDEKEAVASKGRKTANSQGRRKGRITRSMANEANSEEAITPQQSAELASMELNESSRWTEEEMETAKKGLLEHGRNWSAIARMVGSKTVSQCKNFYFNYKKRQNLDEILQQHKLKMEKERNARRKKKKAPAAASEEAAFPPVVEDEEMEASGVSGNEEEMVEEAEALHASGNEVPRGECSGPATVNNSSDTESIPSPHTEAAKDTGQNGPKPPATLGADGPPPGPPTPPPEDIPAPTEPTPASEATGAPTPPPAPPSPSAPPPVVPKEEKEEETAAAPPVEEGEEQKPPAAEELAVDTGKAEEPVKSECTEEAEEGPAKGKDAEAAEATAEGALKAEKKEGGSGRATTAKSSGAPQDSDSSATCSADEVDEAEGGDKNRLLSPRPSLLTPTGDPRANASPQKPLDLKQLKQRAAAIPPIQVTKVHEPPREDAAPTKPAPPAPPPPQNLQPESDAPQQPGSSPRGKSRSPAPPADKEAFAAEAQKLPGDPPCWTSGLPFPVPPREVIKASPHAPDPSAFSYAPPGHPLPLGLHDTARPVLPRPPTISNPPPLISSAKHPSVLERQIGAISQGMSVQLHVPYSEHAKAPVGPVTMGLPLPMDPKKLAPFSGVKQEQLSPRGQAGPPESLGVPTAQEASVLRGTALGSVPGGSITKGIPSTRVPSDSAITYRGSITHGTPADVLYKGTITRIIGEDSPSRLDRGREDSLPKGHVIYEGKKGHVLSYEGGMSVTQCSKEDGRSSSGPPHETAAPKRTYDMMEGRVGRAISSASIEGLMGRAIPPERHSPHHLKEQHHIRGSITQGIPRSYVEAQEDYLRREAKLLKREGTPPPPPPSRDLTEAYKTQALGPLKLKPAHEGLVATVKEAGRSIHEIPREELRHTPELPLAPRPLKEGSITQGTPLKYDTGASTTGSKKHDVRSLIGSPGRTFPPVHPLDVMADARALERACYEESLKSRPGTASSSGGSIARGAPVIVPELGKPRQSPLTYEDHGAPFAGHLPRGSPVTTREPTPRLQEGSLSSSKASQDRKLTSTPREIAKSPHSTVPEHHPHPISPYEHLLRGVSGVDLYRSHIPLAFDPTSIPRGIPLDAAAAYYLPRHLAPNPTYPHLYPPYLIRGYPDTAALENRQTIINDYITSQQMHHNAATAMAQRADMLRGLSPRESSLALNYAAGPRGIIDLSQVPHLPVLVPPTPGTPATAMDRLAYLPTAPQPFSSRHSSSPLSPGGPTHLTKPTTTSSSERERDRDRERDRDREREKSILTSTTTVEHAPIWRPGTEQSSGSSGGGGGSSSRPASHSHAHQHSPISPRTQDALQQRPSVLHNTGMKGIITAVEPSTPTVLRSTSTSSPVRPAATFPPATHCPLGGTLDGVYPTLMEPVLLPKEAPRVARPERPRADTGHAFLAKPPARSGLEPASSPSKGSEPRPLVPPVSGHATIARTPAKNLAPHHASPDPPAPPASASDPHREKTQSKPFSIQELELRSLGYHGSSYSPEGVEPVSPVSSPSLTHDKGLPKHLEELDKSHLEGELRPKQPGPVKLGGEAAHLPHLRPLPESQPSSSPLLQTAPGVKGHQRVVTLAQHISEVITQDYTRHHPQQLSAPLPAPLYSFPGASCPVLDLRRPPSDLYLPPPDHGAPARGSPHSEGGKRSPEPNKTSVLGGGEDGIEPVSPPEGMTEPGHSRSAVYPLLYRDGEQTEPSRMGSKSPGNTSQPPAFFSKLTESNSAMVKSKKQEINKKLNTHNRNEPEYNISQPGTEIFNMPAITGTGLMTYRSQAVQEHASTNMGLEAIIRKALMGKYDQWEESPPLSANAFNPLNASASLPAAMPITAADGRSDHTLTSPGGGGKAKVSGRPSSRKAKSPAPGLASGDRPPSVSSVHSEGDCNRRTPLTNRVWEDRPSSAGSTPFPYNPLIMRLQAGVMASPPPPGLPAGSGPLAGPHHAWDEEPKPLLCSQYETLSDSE

IC50 (Histone deacetylase 8): 948 nM
IC50 [1]: 1240 nM
IC50 (Histone deacetylase): 0.0275 µM
Ratio IC50 [2]: 19
Ratio IC50 (Histone deacetylase 1): 12
IC50 (HCT-116 [3]): 500 nM
IC50 (MDA-MB-231 [4]): 380 nM
IC50 (HepG2): 1290 nM
IC50 (SGC-7901): 1520 nM
IC50 (K562): 120 nM
CLint [22]: 0.0031 mL/min/mg
Compound: CCCCNc1nc(Cl)nc2c1ncn2Cc1ccc(C(=O)Nc2ccccc2N)cc1
Ratio IC50 (MDA-MB-231 [5]): 4
Activity (HCT-116 [6]): Active
Activity (HCT-116 [7]): 33.1%
Activity (HCT-116 [8]): 2.12%
Activity (HCT-116 [9]): 8.94%
viability at 5 µM (HCT-116 [10]): 18.4%
Activity (HCT-116 [11]): 10.1%
Activity (HCT-116 [12]): 0.902%
Activity (HCT-116 [13]): 59.1%
Activity (HCT-116 [14]): 66.71%
Activity (HCT-116 [15]): 11.15%
Activity (HCT-116 [16]): 20.04%
Activity (HCT-116 [17]): Dde
Activity (HCT-116 [18]): Dde
Activity (HCT-116 [19]): Dde
Activity (HCT-116 [20]): Tde
Activity (HCT-116 [21]): Tde
